According to US20200375864A1, “PERIODONTAL DISEASE TREATMENT” (STRAUMANN HOLDING AG, priority 2013, published 2020):
“Also recorded” adds a separate entry of the source.

What was measured:
supragingival biofilm = assay: 70/30 supragingival biofilm model, biofilm decontamination with antimicrobial solutions (Experiments 1 and 2); type: cell-based; conditions: for biofilm microbiota after 24 h (CFU, FIG. 8) / immediate effect on the biofilm microbiota (CFU, FIG. 8): hydrogen peroxide 0.1% and 1%; for CFU 24 hours after cleaning agent treatment (summary, FIG. 3b) / CFU immediately after cleaning agent treatment (summary, FIG. 3a): supragingival model, experiments 1 and 2; for immediate effect on the biofilm microbiota (CFU, FIG. 8): immediately after application, sodium hypochlorite 0.1%, 1% and 3%, detection limit <2.0E1; for CFU immediately after cleaning agent treatment (summary, FIG. 3a): immediate; for lasting biofilm inhibiting effect, recovery of the microorganisms after 24 h (CFU, FIG. 7) / immediate decontaminating effect compared to the saline control (CFU, FIG. 7): Experiment 1, chlorhexidine 0.2%, hydrogen peroxide 3%; for immediate decontaminating effect compared to the saline control (CFU, FIG. 7): after dip, sodium hypochlorite 3%
Source text: Evaluation of biofilm decontamination with various antimicrobial solutions Tested in a 70/30 supragingival biofilm model For a detailed description of the biofilm model used in this experiment, see e.g. Guggenheim et al., 2004, 2001 a; and Shapiro et al., 2002 and Guggenheim et al., 2009. […]

[1] = system: individual members of the biofilm consortium; assay: subgingival biofilm model, antimicrobial solutions alone, effect on individual species (Experiment 3); type: cell-based; conditions: NaCIO 0.1% and 1%; for P. intermedia and P. gingivalis in the following 24 h (re-growth): 24 h after treatment; for immediate effect on individual species (FIGS. 9, 10 and 11): all species, immediately after 1 min exposure
Source text: (§1) Evaluation of subgingival biofilm decontamination with various antimicrobial solutions tested in a subgingival biofilm model For a detailed description of the biofilm model used in this experiment, see e.g. Guggenheim et al., 2004, 2001 a; and Shapiro et al., 2002 and Guggenheim et al., 2009. OMZ 278, Prevotella intermedia OMZ 493, Veilonella dispar OMZ 598, Fusobacterium nucleatum OMZ 607, Streptococcus oralis OMZ 661, Treponema denticola OMZ 698, Campylobacter rectus OMZ 745, Actinomyces oris OMZ 871, Streptococcus anginosus OMZ 925, Porphyromonas gingivalis OMZ 1047, Tannerella forsythia [table] The purpose of the present biofilm experiment was to assess the efficacy of various antimicrobial solutions on a subgingival microbiota associated with periodontitis and implantitis. The antimicrobial effect was evaluated immediately and 24 h after a 1 min exposure to the test solutions to biofilms grown on titanium discs.

subgingival biofilm = subgingival biofilm model on titanium discs, antimicrobial solutions alone, total CFU (Experiment 3); type: cell-based; conditions: for reduction of the microbiota on the biofilms compared with the saline controls immediately after exposure (total CFU, FIG. 13): immediately after 1 min exposure, NaCIO 0.1% and 1%
Source text: as §1

skin = conditions: 2% solution; cited from earlier work
[2] = cited from earlier work

Row | Structure (SMILES) | biofilm microbiota after 24 h (CFU, FIG. 8) (supragingival biofilm; Experiment 2, 24 h after dip) | CFU 24 hours after cleaning agent treatment (summary, FIG. 3b) (supragingival biofilm) | immediate effect on the biofilm microbiota (CFU, FIG. 8) (supragingival biofilm; Experiment 2) | CFU immediately after cleaning agent treatment (summary, FIG. 3a) (supragingival biofilm) | immediate effect on individual species (FIGS. 9, 10 and 11) [1] | reduction of the microbiota on the biofilms compared with the saline controls immediately after exposure (total CFU, FIG. 13) (subgingival biofilm; Experiment 3) | immediate decontaminating effect compared to the saline control (CFU, FIG. 7) (supragingival biofilm) | other results
1 | [Na+].[O-]Cl [0.1% NaCIO, Sodium hypochlorite] | in part recovered | bacterial regrowth | – | – | – | – | – | –
2 | [H]/N=C(\N/C(=N/[H])NCCCCCCNC(=N)NC(=N)Nc1ccc(Cl)cc1)Nc1ccc(Cl)cc1 [0.2% CHX, Chlorhexidine] | – | clear CFU reduction | low immediate effect | no significant immediate CFU influence | – | – | – | reduction of the biofilm microbiota after 24 h (supragingival biofilm; Experiment 2, 24 h after dip): ~6 log steps
3 | [H]/N=C(\N/C(=N/[H])NCCCCCCNC(=N)NC(=N)Nc1ccc(Cl)cc1)Nc1ccc(Cl)cc1 [1% CHX, Chlorhexidine] | eradicating totally the biofilm microbiota | clear CFU reduction | – | no significant immediate CFU influence | only a limited effect | only a limited effect | – | P. intermedia and P. gingivalis in the following 24 h (re-growth) [1]: eradication
4 | [H]/N=C(\N/C(=N/[H])NCCCCCCNC(=N)NC(=N)Nc1ccc(Cl)cc1)Nc1ccc(Cl)cc1 [2% chlorhexidine, chlorhexidine] | – | – | – | – | – | – | – | skin irritation (skin): irritating to the skin
5 | OO [3% H2O2, hydrogen peroxide] | – | – | – | – | only a limited effect | only a limited effect | – | –
6 | OCl [3.0% sodium hypochlorite, Sodium hypochlorite] | no detectable microorganisms | – | no detectable microorganisms | – | – | – | – | –
7 | N=C(NCCCCCCNC(=N)NC(=N)Nc1ccc(Cl)cc1)NC(=N)Nc1ccc(Cl)cc1.O=C(O)[C@H](O)[C@@H](O)[C@H](O)[C@H](O)CO.O=C(O)[C@H](O)[C@@H](O)[C@H](O)[C@H](O)CO [CHX gluconate, Chlorhexidine gluconate] | – | – | – | – | – | – | – | solubility in water [2]: water-soluble
8 | [H]/N=C(\N/C(=N/[H])NCCCCCCNC(=N)NC(=N)Nc1ccc(Cl)cc1)Nc1ccc(Cl)cc1 [CHX, Chlorhexidine] | – | – | – | – | – | – | very modest | lasting biofilm inhibiting effect, recovery of the microorganisms after 24 h (CFU, FIG. 7) (supragingival biofilm; 24 h after dip): strong lasting effect; strong sustained effect on the total CFU after 24 h / biofilm re-growth (subgingival biofilm; Experiment 3, 24 h after 1 min exposure): not observed
9 | OO [H2O2, hydrogen peroxide] | re-established to the level of the controls | – | low decontaminating action | – | – | – | very modest | lasting biofilm inhibiting effect, recovery of the microorganisms after 24 h (CFU, FIG. 7) (supragingival biofilm; 24 h after dip): no or minute lasting biofilm inhibiting action
10 | OCl [NaCIO, Sodium hypochlorite] | – | no sustained effect on its own | – | reduces CFU counts the most; also recorded: strong immediate CFU reduction | near or to the detection limit | near or to the detection limit | very impressive | immediate effect on the biofilm microbiota (CFU, FIG. 8) (supragingival biofilm; Experiment 2, listed as sodium hypochlorite): below the detection level; P. intermedia and P. gingivalis in the following 24 h (re-growth) [1]: eradication; CFU immediately after cleaning agent treatment (summary, FIG. 3a) (subgingival biofilm; subgingival model, experiment 3, immediate): strong immediate CFU reduction
